# Assay results reported in the supplement of paper PMC10307832.
# Experiments:
# Assay in all cases: relative viability (nuclei count vs DMSO), 5 days (fraction); higher = more cells survive
# Serdemetan + Foretinib = compound: c1ccc2c(CCNc3ccc(Nc4ccncc4)cc3)c[nH]c2c1 [Serdemetan] + COc1cc2c(Oc3ccc(NC(=O)C4(C(=O)Nc5ccc(F)cc5)CC4)cc3F)ccnc2cc1OCCCN1CCOCC1 [Foretinib] (partner 0.25 µM)
# Outline: (§1)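 Lung cancer cell lines, seeded in 1536-well plates, were treated the following day by pin tool with a single drug or with five library-drug doses (not always all listed) in √10 steps on top of a fixed anchor-drug dose. Cells were fixed and nuclei stained in one step after 5 days, and nuclei were counted. Relative viability is the nuclei count for treated wells divided by that for vehicle wells, reported as medians of duplicate plates.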
# Serdemetan + Trametinib = compound: c1ccc2c(CCNc3ccc(Nc4ccncc4)cc3)c[nH]c2c1 [Serdemetan] + CC(=O)Nc1cccc(-n2c(=O)n(C3CC3)c(=O)c3c(Nc4ccc(I)cc4F)n(C)c(=O)c(C)c32)c1 [Trametinib] (partner 0.02 µM)
# Outline: as §1
# Serdemetan + Pemetrexed = compound: c1ccc2c(CCNc3ccc(Nc4ccncc4)cc3)c[nH]c2c1 [Serdemetan] + Nc1nc2[nH]cc(CCc3ccc(C(=O)N[C@@H](CCC(=O)O)C(=O)O)cc3)c2c(=O)[nH]1 [Pemetrexed] (partner 0.2 µM)
# Outline: as §1
# Selisistat + Pemetrexed = compound: C1CC(C2=C(C1)C3=C(N2)C=CC(=C3)Cl)C(=O)N [Selisistat] + Nc1nc2[nH]cc(CCc3ccc(C(=O)N[C@@H](CCC(=O)O)C(=O)O)cc3)c2c(=O)[nH]1 [Pemetrexed] (partner 0.2 µM)
# Outline: as §1
Cell Line,relative viability (Serdemetan + Foretinib; first compound 0.04 µM),relative viability (Serdemetan + Foretinib; first compound 0.1265 µM),relative viability (Serdemetan + Foretinib; first compound 0.4 µM),relative viability (Serdemetan + Foretinib; first compound 1.265 µM),relative viability (Serdemetan + Foretinib; first compound 4 µM),relative viability (Serdemetan + Trametinib; first compound 0.04 µM),relative viability (Serdemetan + Trametinib; first compound 0.1265 µM),relative viability (Serdemetan + Trametinib; first compound 0.4 µM),relative viability (Serdemetan + Trametinib; first compound 1.265 µM),relative viability (Serdemetan + Trametinib; first compound 4 µM),relative viability (Serdemetan + Pemetrexed; first compound 0.04 µM),relative viability (Serdemetan + Pemetrexed; first compound 0.1265 µM),relative viability (Serdemetan + Pemetrexed; first compound 0.4 µM),relative viability (Serdemetan + Pemetrexed; first compound 1.265 µM),relative viability (Serdemetan + Pemetrexed; first compound 4 µM),relative viability (Selisistat + Pemetrexed; first compound 0.4 µM),relative viability (Selisistat + Pemetrexed; first compound 1.265 µM),relative viability (Selisistat + Pemetrexed; first compound 4 µM),relative viability (Selisistat + Pemetrexed; first compound 12.65 µM),relative viability (Selisistat + Pemetrexed; first compound 40 µM)
NCI-H1651,0.724,0.515,0.407,0.465,0.235,0.848,0.784,0.775,0.433,0.256,0.582,0.388,0.505,0.443,0.323,0.64,0.673,0.51,0.519,0.497
NCI-H441,1.05,0.918,0.981,0.99,0.872,0.462,0.508,0.436,0.435,0.414,0.262,0.293,0.257,0.202,0.225,0.31,0.247,0.293,0.271,0.279
LCLC-103H,0.697,0.81,0.647,0.556,0.569,0.686,0.671,0.684,0.538,0.638,0.447,0.49,0.481,0.386,0.454,0.42,0.473,0.469,0.509,0.529
LCLC-97TM1,0.935,0.899,0.918,–,0.767,0.204,0.193,0.177,0.167,0.171,0.147,0.196,0.188,0.153,0.197,0.153,0.177,–,0.155,0.206
NCI-H1355,0.963,0.955,0.798,0.907,0.66,0.411,0.478,0.367,0.394,0.374,1.07,1.02,0.949,1.05,0.954,1.12,1.08,1,1.08,1.11
HOP-62,1.04,1.08,1.1,0.796,0.693,0.353,0.319,0.343,0.314,0.28,0.293,0.368,0.307,0.333,0.365,0.327,0.284,0.448,0.284,0.488
NCI-H2085,1,0.899,1,0.936,0.533,0.467,0.552,0.289,0.264,0.301,0.91,0.818,0.773,0.798,0.642,1.06,0.967,0.622,0.939,0.877
